# Experimental data published in patent US20060199853A1, “Analogs of 4-hydroxyisoleucine and uses thereof” (priority 2005, published 2006).
# Tests used:
# [1] = tested on: Diet Induced Obesity (DIO)-C57BL/6 Mice; test: Glycemic response to an OGTT during chronic oral administration in DIO-C57BL/6 mice; type: in vivo; conditions: for time of maximal effect on control of glycemia: chronic oral administration twice daily
# Description: Studies were conducted to evaluate the effect of a chronic oral administration of selected analogs according to the invention on the glycemic response of Diet-induced Obesity (DIO)-C57BI/6 mice following an Oral Glucose Tolerance Test (OGTT) performed weekly.
# In a first study, a total of 56 animals were used. The animals were distributed into 7 groups (6 treated and 1 high fat diet control groups). Each group was composed of 8 animals. The mice were randomized according to basal glycemia values following a 5±0.5 hours fasting period. Compound #14a and #133 were dissolved in reverse osmosis water while Compound #13e was dissolved in 200 mM Bicarbonate/0.1% Tween-20 buffer, pH=9.0. Compounds #14a and #133 were kept at 4° C (administration to groups 2 & 3, and 4 & 5, respectively) while Compound #13e was freshly prepared daily. Control animals received sterile saline, twice daily (Groups 1 […]). Mice from groups 2 and 3 were treated twice daily with Compound #14a at 50 and 100 mg/kg, respectively. Animals from groups 4 and 5 received twice daily 50 and 100 mg/kg of Compound #133, respectively. Mice from groups 6 and 7 received 25 and 50 mg/kg of Compound #13e, twice daily, respectively.
# On day 0, 7, 14, and 21, animals fasted for about 5 hours were challenged with an Oral Glucose Tolerance Test (OGTT) at 5 hours post-AM test article administration. Whole blood glucose levels were monitored using a hand-held glucometer prior to OGTT and for up to 2 hours post-glucose challenge. In a separate experiment, the same experimental design was used to evaluate the effect of chronic administration of Compound #85(101a) on the glycemic response of DIO-C57BI/6 mice following an Oral Glucose Tolerance Test (OGTT) performed after 7 days of treatment.
# FIGS. 19A, 19B, 19C, and 19D are bar graphs showing glycemic response of mice following an OGTT performed after 7 days (FIGS. 19A and 19D), 14 days (FIG. 19B) or 21 days (FIG. 19C) of treatment after chronic oral administration of selected analogs according to the invention. For each figure, delta glycemia values were calculated by substraction of pre-OGTT glycemia value. AUC values were obtained from the delta glycemia curves. Values represent the mean±SEM. N=8 animals/group. Ctl=Control DIO.*p<0.05.
# [2] = tested on: Diet Induced Obesity (DIO)-C57BL/6 Mice; test: Glycemic response to an OGTT after a single oral administration in DIO-C57BL/6 mice; type: in vivo; conditions: FIGS. 18A, 18B; for glycemic response following OGTT (delta glycemia AUC): 100 mg/kg, OGTT 10 minutes post-administration; for efficacy relative to the other compounds tested: OGTT
# Description: Studies were conducted to evaluate the effect of acute oral administration of selected analogs according to the invention on the glycemic response of Diet-Induced Obesity (DIO)-C57BI/6 mice following an Oral Glucose Tolerance Test (OGTT).
# In the first study, a total of 40 mice were used. The animals were randomized according to their basal glycemia values following a 5±0.5 hours fasting period and then distributed into 5 groups (1 control and 4 treated groups). Each group was composed of 8 animals. On the day of treatment, test articles were dissolved in reverse osmosis water and kept on ice. Control group (Group 1) received sterile water and Group 2 to 5 received 100 mg/kg of Compound #14a, Compound #128, Compound #133 and Compound #13e, respectively.
# On the day of experimentation, animals were fasted ˜5 hours prior to the OGTT and then OGTT was performed at 10 minutes post-test article administration, by oral gavage administration of 40% glucose solution. Whole blood glucose levels were monitored using a hand-held glucometer prior to OGTT and for up to 2 hours post-lucose challenge.
# In a separate experiment, the effect of acute oral administration of another analog, Compound #85(101a), on the glycemic response of DIO-mice was evaluated using the same experimental design.
# FIGS. 18A and 18B show the glycemic response of mice following an OGTT performed after a single oral administration of Compounds #14a, #128, #133, #13e, and #85(101a). For both figures, delta glycemia values were calculated by substraction of pre-OGTT glycemia value. AUC values were obtained from the delta glycemia curves. Values represent the mean±SEM. N=8 animals/group. Ctl=Control DIO.*p<0.05; . . . p<0.001.
# INS-1 cells = test: Glucose-dependent stimulation of insulin secretion in INS-1 cells; type: cell-based; conditions: for insulin stimulating activity: 0.5 mM compound, 4.5 mM glucose; for stimulation of insulin secretion: FIGS. 17A-17E, single concentration of 0.5 mM, 4.5 or 5 mM glucose
# Description: Selected analogs according to the invention were tested in a blinded fashion for insulinotropic effect on INS-1 cells. Briefly, the cells were plated at a density of 2×10^5 in 12 well plates and incubated for 2 days in RPMI with 10% fetal calf serum and 11 mM glucose. The medium was removed on the third day post-plating and replaced with RPMI containing 3 mM glucose with 10% fetal calf serum. The cells were incubated for an additional 24 hours. On the fourth day post-plating, the medium was removed and replaced with Krebs-Ringer bicarbonate buffer containing 2 mM glucose. The cells were incubated for 30 min and the buffer was removed and replaced with Krebs-Ringer bicarbonate buffer with 4.5 mM glucose containing the compounds to be tested at a concentration of 0.5 mM. The cells were incubated for 1 hour. Basal insulin secretion was determined by incubating the cells in the presence of buffer with 2 mM glucose. The presence of glucose at 4.5 and 10 mM stimulated insulin secretion served as the reference control and positive control, respectively.
# Selected analogs according to the invention were screened for insulinotropic effect on INS-1 pancreatic beta cells according to the method described in Example 3.
# [3] = tested on: differentiated 3T3-L1 adipocyte cells; test: Stimulation of glucose uptake (3H-deoxy-glucose) by differentiated 3T3-L1 adipocyte cells; type: cell-based; conditions: insulin at 10^-7 M; for stimulation of glucose uptake beyond that caused by insulin alone: FIG. 15B, 0.5 mM; for stimulation of glucose uptake: FIG. 15A, compounds at three concentrations, last 30 min of starvation
# Description: Selected analogs according to the invention were tested for their effect on the uptake of ^3H-deoxy-glucose by differentiated 3T3-L1 adipocyte cells. Briefly, 3T3-L1 adipocyte cells (ATCC; Cl-173) were cultured in 12 well tissue culture plates for 3 days in order to reach confluence (Lakshmanan et al., Diabetes Mellitus: Methods and Protocols, Saire Ozcna, Ed., Humana Press Inc., Tonowa, N.J. 97-103, 2003). The culture medium was removed and replaced with differentiation medium (Green and Meuth, Cell 3:127-133, 1974; Madsen et al., Biochem. J. 375:539-549, 2003) and then the cells were incubated for an additional 9 days. The state of differentiation was confirmed by visual examination. Cell starvation was conducted for 5 hours by replacing the differentiation medium with one lacking fetal calf serum. During the last 30 minutes of the starvation period, the cells were exposed to compounds to be assayed at a range of concentrations. As a positive control, cells were exposed to insulin (0.0167 U/mL; Sigma; Cat. No. 15534) for the last 30 minutes of the starvation period Cells were exposed to 0.5 mM isoleucine are used as a control for background uptake. All treatments were performed in triplicate. Cells were washed, then fresh medium containing 16 μM ^3H-Deoxy-D-glucose (0.5 μCi/mL) and 10 μM 2-Deoxy-D-glucose was added and the cells were incubated for 10 min. Glucose uptake was stopped by washing the cells with ice cold PBS. The cells were lysed and specific activity in the lysate was determined relative to background uptake of ^3H-deoxy-glucose. Results were standardized on the basis of protein content per well.
# FIG. 1 5B is another figure showing insulin stimulation of glucose uptake by insulin at 10^−7M, and by the analogs of the invention.
Molecule,glycemic response following OGTT (delta glycemia AUC) [2],stimulation of insulin secretion (INS-1 cells),stimulation of glucose uptake [3],further results
N[C@H](C(=O)O)[C@@H]1CCCC[C@H]1O [#13e],significant effect on the glycemic control of DIO-mice,more effective to stimulate insulin secretion than parent compound #14a,,"glycemia increase following OGTT ([1]; 25 and 50 mg/kg twice daily, half the dose of the other treated groups): significantly reduced the glycemia increase in DIO-mice; hyperglycaemic response following OGTT ([1]; 25 and 50 mg/kg twice daily, Day 21, FIG. 19C): reduced significantly the hyperglycaemic response of animals; time of maximal effect on control of glycemia [1]: 14 days post-initiation of treatment; efficacy relative to the other compounds tested [2]: most efficacious; insulin stimulating activity (INS-1 cells; FIG. 16A, 1 hour): most effective; insulin stimulating activity (INS-1 cells; FIG. 16B): most effective; stimulation of glucose uptake beyond that caused by insulin alone [3]: greater than the stimulation caused by the parent compound"
C[C@@H]([C@H](C)O)[C@H](N)C(=O)O [#14a],significant effect on the glycemic control of DIO-mice,significant insulin stimulating activity in all the experiments,stimulated glucose uptake at all three concentrations tested,"time of maximal effect on control of glycemia [1]: 14 days post-initiation of treatment; insulin stimulating activity (INS-1 cells; FIG. 16A, 1 hour): significant insulin stimulating activity; stimulation of glucose uptake beyond that caused by insulin alone [3]: limited stimulation of glucose uptake beyond that caused by insulin alone"
N[C@H](C(=O)O)[C@H]1CCCC[C@H]1O [#15e],,more effective to stimulate insulin secretion than parent compound #14a,,
CC1C(O)CN[C@@H]1C(=O)O (some centres unmarked) [#22],,more effective to stimulate insulin secretion than parent compound #14a,,
CC(O)C1C(O)CN[C@@H]1C(=O)O (some centres unmarked) [#33],,,at least equivalent activity to the parent compound,
NC(CC(O)C1CCCCC1)C(=O)O (centres unmarked) [#59],,more effective to stimulate insulin secretion than parent compound #14a,,
NC(CC(O)c1ccccc1)C(=O)O (centres unmarked) [#61],,more effective to stimulate insulin secretion than parent compound #14a,,
C[C@H]([C@H](N)C(=O)O)C(C)(C)O [#85(101a)],significant effect on the glycemic control of DIO-mice,,,"glycemic control following OGTT ([1]; 7 consecutive days of administration, statistically significant vs control, FIG. 19D): improved the glycemic control of DIO-mice; efficacy relative to the other compounds tested [2]: most efficacious"
C=CC(C)(C)C(N)C(=O)O (centres unmarked) [#102b],,,at least equivalent activity to the parent compound,
CC(=O)N[C@@H]1C(=O)O[C@@H](C)[C@@H]1C [#104],,more effective to stimulate insulin secretion than parent compound #14a,,
CC(C)[C@H](NC[C@@H](C)O)C(=O)O [#133],significant effect on the glycemic control of DIO-mice,,,time of maximal effect on control of glycemia [1]: 14 days post-initiation of treatment
O=C(O)[C@H]1C[C@@H](O)CN1 [#201],,more effective to stimulate insulin secretion than parent compound #14a,,
insulin [reference compound],,,strongly promoted glucose uptake,
